Data: patent US9670219B2, “Tetrahydrooxepinopyridine compound” (ASTELLAS PHARMA INC., priority 2015, dated 2017)
Counter-ions that a name gives are not always drawn.

Legend:
human α7 nACh receptor [1] = target: T1, human α7 nACh receptor (Homo sapiens, UniProt P36544); experiment: Evaluation for human α7 nACh receptor using FLIPR (intracellular calcium response, PAM activity); type: cell-based; settings: for Max: maximum response of test drug with agonist PNU-282987, relative to maximum response of PNU-120596 = 100%; for EC20: test drug concentration giving 20% response, maximum response of PNU-120596 with agonist PNU-282987 (0.6 μM) = 100%, HEK293 cells co-expressing human α7 nACh receptor/rat RIC3
T1 construct: expressed in transfected cells; host or cells: HEK293 cells (ATCC CRL-1573), transient co-transfection by electroporation with rat RIC3 (NM_001115045.3)
Protocol: Assay buffer: HBSS buffer containing 1.25 mM probenecid.
The PAM activity of a test drug was evaluated in terms of Ca^2+ dye-based fluorescence intensity for an intracellular calcium response in the presence of an α7 nACh receptor-selective agonist PNU-282987 (CAS registry number: 123464-89-1, Tocris) using a FLIPR tetra (Molecular Devices).
In the case where a concentration-response curve has been obtained in which the logarithm of a concentration of a test drug is on the abscissa and the ratio of a response (hereinafter, also referred to as calcium response) is on the ordinate, this test drug has been determined to have a PAM activity.
In this test, the agonist (PNU-282987) elicited a calcium response only in the presence of PAM (PNU-120596).
The coding sequence of a human α7 nACh receptor (accession number: NM_000746.5) was subcloned into a pCEP4 vector (Life Technologies). The coding sequence of a rat chaperone protein RIC3 (accession number: NM_001115045.3) was subcloned into a pcDNA3.1/Hygro (+) vector (Life Technologies). The resulting constructs were transfected into HEK293 cells (ATCC number: CRL-1573) by an electroporation method using Neon (Life Technologies).
The transiently expressing cells obtained in the manner described above were seeded at a density of 8×10^3 cells/well onto a 384-well plate (Becton Dickinson) and allowed to stand overnight at 37° C. DMEM+10% FBS was used as a medium.
On the next day, the medium was removed, and Fluo4-AM (Dojindo) prepared using an assay buffer was applied, followed by allowing to stand for 1 hour. The test drug was dissolved in DMSO and then made to a final concentration of 0.03 to 100 μM (3-fold dilutions) with an assay buffer. Similarly, PNU-120596 which is a known PAM was made to a final concentration of 0.003 to 10 μM (3-fold dilutions). PNU-282987 which is an agonist was made to a final concentration of 0.6 μM. Thereafter, the test drug was applied to the cells using a FLIPR tetra, the agonist (PNU-282987) was added 5 minutes later, and the fluorescence intensity at that time was detected.
As a control, using (1) a group with neither addition of a test drug, PAM (PNU-120596) nor that of agonist (PNU-282987), the response thereof was set to 0%. Using (2) a group with the addition of PAM (PNU-120596) and agonist (PNU-282987), the maximum response thereof was set to 100%.
To quantitatively compare the PAM activity of the test drug, an EC20 value and a Max value were used as activity indicators. […] The EC20 value was calculated using a non-linear regression analysis from the concentration-response curve of a human α7 nACh receptor with the addition of a test drug. The Max value refers to a maximum response value. The Max value is expressed in terms of % value of the maximum response of a test drug in the presence of an agonist (PNU-282987) relative to when the maximum response of PAM (PNU-120596) in the presence of an agonist (PNU-282987) is set to 100%.

human α7 nACh receptor [2] = target: T1, human α7 nACh receptor; experiment: Electrophysiological evaluation for human α7 nACh receptor (Qpatch HTX or Qube current response); type: cell-based; design: key: positive: an inward current response specific to a human α7 nACh receptor was obtained when 3 μM of a test drug had been added; negative: a specific current response was not observed; settings: 3 μM test drug added simultaneously with 100 μM AChCl; voltage-clamped at −90 mV
Protocol: The PAM activity of a test drug was evaluated by a current response in the presence of an α7 nACh receptor agonist Acetylcholine chloride (Sigma) (hereinafter, also referred to as AChCl) using Qpatch HTX (Biolin Scientific) or Qube (Biolin Scientific). This test cannot detect a small current response of AChCl alone. The current response can be detected only in the case where the test drug has a PAM activity.
Extracellular fluid (pH 7.4): NaCl 145 mM, KCl 4 mM, HEPES 10 mM, CaCl2 2 mM, MgCl2 1 mM.
Intracellular fluid (pH 7.2): KF 120 mM, KCl 20 mM, EGTA 0.1 mM, HEPES 10 mM, MgCl2 2 mM.
The cells were obtained in the same manner as in Test Example 1.
The response of a human α7 nACh receptor with the addition of a test drug was measured by the following experiment. Transient expression cells obtained by the method described above were subjected to the experiment after allowing to stand overnight at 37° C. The test drug was dissolved in DMSO, and then made to a final concentration of 3 μM using extracellular fluid. The agonist AChCl was made to a final concentration of 100 μM. The membrane potential was voltage-clamped at −90 mV. The current response was measured by multi-hole mode at the time of simultaneous addition of the test drug and AChCl to the cells, using QPatch HTX or Qube.
As a result of the tests above, the case where an inward current response specific to a human α7 nACh receptor was obtained when 3 μM of a test drug had been added was determined as positive, and the case where a specific current response was not observed was determined as negative. It should be noted that, when the agonist concentration is 0, the current response was not observed even with the addition of a test drug.

T1 sequence (P36544 23-502): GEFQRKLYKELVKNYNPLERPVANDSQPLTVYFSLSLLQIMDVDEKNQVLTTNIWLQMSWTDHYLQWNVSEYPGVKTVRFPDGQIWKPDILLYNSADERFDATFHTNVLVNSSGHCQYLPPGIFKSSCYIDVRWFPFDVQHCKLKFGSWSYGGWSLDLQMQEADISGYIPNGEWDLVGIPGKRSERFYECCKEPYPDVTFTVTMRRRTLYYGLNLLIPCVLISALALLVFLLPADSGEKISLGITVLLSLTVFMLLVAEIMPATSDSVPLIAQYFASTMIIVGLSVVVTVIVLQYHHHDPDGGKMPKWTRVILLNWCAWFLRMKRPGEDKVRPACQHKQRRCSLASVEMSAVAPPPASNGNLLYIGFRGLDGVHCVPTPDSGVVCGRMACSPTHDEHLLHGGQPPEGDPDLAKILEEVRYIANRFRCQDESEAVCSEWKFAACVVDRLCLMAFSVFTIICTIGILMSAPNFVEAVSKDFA

Max (human α7 nACh receptor [1]) [%]	EC20 (human α7 nACh receptor [1]) [nM]	Dat. 1 (Determination) (human α7 nACh receptor [2])	SMILES	also measured
		positive	Cc1cncc(NC(=O)c2cc(N3CCC[C@@H]3C)nc3c2CCOCC3)n1 [Ex 40, N-(6-methylpyrazin-2-yl)-2-[(2S)-2-methylpyrrolidin-1-yl]-5,6,8,9-tetrahydrooxepino[4,5-b]pyridine-4-carboxamide hydrochloride]	
		positive	Cc1ncc(NC(=O)c2cc(N3CCC[C@H]3C)nc3c2CCOCC3)nc1C [Ex 46]	
		positive	CO[C@H]1CCN(c2cc(C(=O)Nc3cccc(C#N)c3)c3c(n2)CCOCC3)C1 [Ex 48, N-(3-cyanophenyl)-2-[(3S)-3-methoxypyrrolidin-1-yl]-5,6,8,9-tetrahydrooxepino[4,5-b]pyridine-4-carboxamide hydrochloride]	
		positive	O=C(Nc1cccnn1)c1cc(N2CCC(F)CC2)nc2c1CCOCC2 [Ex 50]	
		positive	O=C(Nc1ccc(Cl)cn1)c1cc(N2CCC(F)CC2)nc2c1CCOCC2 [Ex 51, N-(5-chloropyridin-2-yl)-2-(4-fluoropiperidin-1-yl)-5,6,8,9-tetrahydrooxepino[4,5-b]pyridine-4-carboxamide]	
		positive	Cc1ncc(NC(=O)c2cc(N3CCC[C@@H]3C)nc3c2CCOCC3)nc1C [Ex 55]	
		positive	C[C@H]1CCCCN1c1cc(C(=O)Nc2cccnn2)c2c(n1)CCOCC2 [Ex 69, 2-[(2S)-2-methylpiperidin-1-yl]-N-(pyridazin-3-yl)-5,6,8,9-tetrahydrooxepino[4,5-b]pyridine-4-carboxamide hydrochloride]	
		positive	C[C@H]1CCCCN1c1cc(C(=O)Nc2cnccn2)c2c(n1)CCOCC2 [Ex 70, 2-[(2S)-2-methylpiperidin-1-yl]-N-(pyrazin-2-yl)-5,6,8,9-tetrahydrooxepino[4,5-b]pyridine-4-carboxamide hydrochloride]	

More lines, now with the values behind:

SMILES	Max (human α7 nACh receptor [1]) [%]	EC20 (human α7 nACh receptor [1]) [nM]	Dat. 1 (Determination) (human α7 nACh receptor [2])	also measured
O=C(Nc1cccnn1)c1cc(N2CCC[C@H](C(F)(F)F)C2)nc2c1CCOCC2 [Ex 1, N-(pyridazin-3-yl)-2-[(3S)-3-(trifluoromethyl)piperidin-1-yl]-5,6,8,9-tetrahydrooxepino[4,5-b]pyridine-4-carboxamide fumarate]	99.8	2720		
O=C(Nc1cccnn1)c1cc(N2CCC[C@@H](C(F)(F)F)C2)nc2c1CCOCC2 [Ex 7, N-(pyridazin-3-yl)-2-[(3R)-3-(trifluoromethyl)piperidin-1-yl]-5,6,8,9-tetrahydrooxepino[4,5-b]pyridine-4-carboxamide fumarate]	94.8	512		
CC1(C)CN(c2cc(C(=O)Nc3cccnn3)c3c(n2)CCOCC3)CC(C)(C)O1 [Ex 9, N-(pyridazin-3-yl)-2-(2,2,6,6-tetramethylmorpholin-4-yl)-5,6,8,9-tetrahydrooxepino[4,5-b]pyridine-4-carboxamide hydrochloride]	69.3	3520		
C[C@@H]1CN(c2cc(C(=O)Nc3ccc(F)cn3)c3c(n2)CCOCC3)C[C@H](C)O1 [Ex 12, 2-[(2R,6S)-2,6-dimethylmorpholin-4-yl]-N-(5-fluoropyridin-2-yl)-5,6,8,9-tetrahydrooxepino[4,5-b]pyridine-4-carboxamide]	96.9	4350		
C[C@@H]1CN(c2cc(C(=O)Nc3ccc(Cl)cn3)c3c(n2)CCOCC3)C[C@H](C)O1 [Ex 18, N-(5-chloropyridin-2-yl)-2-[(2R,6S)-2,6-dimethylmorpholin-4-yl]-5,6,8,9-tetrahydrooxepino[4,5-b]pyridine-4-carboxamide hydrochloride]	79.2	1020	positive	
COc1ccc(NC(=O)c2cc(N3CCC[C@H]3C)nc3c2CCOCC3)nn1 [Ex 36]			positive	
O=C(Nc1ccc(Cl)cn1)c1cc(N2CCC[C@H](F)C2)nc2c1CCOCC2 [Ex 76, N-(5-chloropyridin-2-yl)-2-[(3S)-3-fluoropiperidin-1-yl]-5,6,8,9-tetrahydrooxepino[4,5-b]pyridine-4-carboxamide benzenesulfonate]			positive	
O=C(N[C@H]1CN2CCC1CC2)c1ccc(Cl)cc1 [PNU-282987, N-(3R)-1-azabicyclo[2.2.2]octo-3-yl-4-chlorobenz amide, reference compound]				calcium response, substance alone (human α7 nACh receptor [1]; agonist alone or test compound alone): not elicited
